Experimental data published in patent publication US12643906B2, “Fused aza-heterocyclic amide compound and use thereof” (CSPC ZHONGQI PHARMACEUTICAL TECHNOLOGY (SHIJIAZHUANG) CO., …, priority 2020, dated 2026).

Legend:
TRKA(G667C) = target: T1, TRKA(G667C) (Homo sapiens, UniProt P04629, G667C); test: HTRF kinase inhibition assay, TRKA(G667C); type: biochemical
T1 construct: purchased signalchem
Method: (§1) The compound to be tested with a certain concentration gradient and an enzyme solution were successively added into a plate (kinase buffer (1× kinase buffer (Cisbio, Cat #62EZBFDD), pH 7.5; 5 mM MgCl2, 1 mM DTT) was added into negative control wells), and the compound plate was centrifuged at 1000 rpm for 30 seconds. The plate was sealed and incubated in a Constant Temperature Incubator at 25° C. for 30 min. A substrate solution containing TK-Sub-biotin (Cisbio, Cat #61TKOBL) and ATP (Sigma, Cat #R0441) was prepared, the substrate solution was added into a 384-well plate, and the plate was centrifuged at 1000 rpm for 30 seconds. The plate was sealed and incubated in a Constant Temperature Incubator at 25° C. for 60 min.
(§2) TK antibody and XL665 were diluted, mixed and added into the assay plate, and the plate was centrifuged at 1000 rpm for 30 seconds. The plate was sealed and incubated in a Constant Temperature incubator Incubator at 25° C. for 60 min. The assay plate was placed on an Envision reader for reading. (HTRF 665/615 ratio: signal value at 665 nm/signal value at 615 nm) Inhibition=(rationegative control well−ratiocompound well)/(rationegative control well−ratioenzyme-free control well)×100% 1.3 Data Analysis and Curve Fitting
(§3) Data were fitted in XLFit excel add-in version 5.4.0.8 to obtain IC50 values.

Ba/F3 LMNA-NTRK1 = target: T2, Ba/F3 LMNA-NTRK1 (Homo sapiens, UniProt P04629); test: In vitro cell proliferation inhibition (MTT); type: cell-based, murine; conditions: 72 h, read-out: IC50 Ba/F3 LMNA-NTRK1
T2 construct: fused on or other part: P02545 (Prelamin-A/C)
Method: (§4) Cells in the logarithmic growth phase were harvested and counted using a […]. The cell suspension with a certain density was pipetted uniformly and seeded into a 96-well plate with each well of 100 μL, and shaken to make the cells uniformly disperse into the wells. 100 μL of compound solution with certain concentration gradient was added into each well, and 3 duplicate wells were set for each concentration. The plate was cultured in a CO2 incubator at 37° C. for 72 h. 20 μL of MTT working solution (5 mg/mL) was added into each well, and the plate was placed at 37° C. for 4 h, and centrifuged at 1000 rpm for 5 min by a plate centrifuge. After 180 μL of culture medium was discarded, the plate was added with 150 μL of DMSO, and mixed well with a microplate shaker, the plate bottom was wiped, and optical density (OD) at 550 nm was detected with a microplate reader.

Ba/F3 ETV6-NTRK3-G623R = target: T3, Ba/F3 ETV6-NTRK3-G623R (Homo sapiens, UniProt Q16288, G623R, cells depend on it); test: In vitro cell proliferation inhibition (MTT); type: cell-based, murine; conditions: 72 h, read-out: IC50 Ba/F3 ETV6-NTRK3-G623R
T3 construct: fused on or other part: P41212 (Transcription factor ETV6)
Method: as §4

Ba/F3 ETV6-NTRK2 = target: T4, Ba/F3 ETV6-NTRK2 (Homo sapiens, UniProt Q16620); test: In vitro cell proliferation inhibition (MTT); type: cell-based, murine; conditions: 72 h, read-out: IC50 Ba/F3 ETV6-NTRK2
T4 construct: fused on or other part: P41212 (Transcription factor ETV6)
Method: as §4

Ba/F3 LMNA-NTRK1-G667C = target: T5, Ba/F3 LMNA-NTRK1-G667C (Homo sapiens, UniProt P04629, G667C, cells depend on it); test: In vitro cell proliferation inhibition (MTT); type: cell-based, murine; conditions: 72 h, read-out: IC50 Ba/F3 LMNA-NTRK1-G667C
T5 construct: fused on or other part: P02545 (Prelamin-A/C)
Method: as §4

Ba/F3 LMNA-NTRK1-G595R = target: T6, Ba/F3 LMNA-NTRK1-G595R (Homo sapiens, UniProt P04629, G595R, cells depend on it); test: In vitro cell proliferation inhibition (MTT); type: cell-based, murine; conditions: 72 h, read-out: IC50 Ba/F3 LMNA-NTRK1-G595R
T6 construct: fused on or other part: P02545 (Prelamin-A/C)
Method: as §4

TRKC = target: T7, TRKC (Homo sapiens, UniProt Q16288); test: HTRF kinase inhibition assay, TRKC; type: biochemical
T7 construct: purchased Bioduro
Method: as §1, §2, §3

ROS1 = target: T8, ROS1 (Homo sapiens, UniProt P08922); test: Kinase inhibition assay with fluorescein labeled peptide, ROS1; type: biochemical
T8 construct: purchased Carna 08-163
Method: Compounds were diluted to a certain concentration in DMSO with 4-fold gradients. The compound with a certain concentration, an enzyme solution and DMSO were added into a 384-well plate, and the plate was incubated at room temperature for 10 min. […] The plate was subjected to reading.

TRKC(G623R) = target: T9, TRKC(G623R) (Homo sapiens, UniProt Q16288, G623R); test: HTRF kinase inhibition assay, TRKC(G623R); type: biochemical
T9 construct: purchased Bioduro
Method: as §1, §2, §3

[1] = test system: TRK, p-TRK, p-PLCγ1, p-AKT in Ba/F3 LMNA-NTRK1-G595R tumor tissues; test: In vivo mechanism study, western blot of tumor tissues; parameters: species or system NuNu mice; conditions: 100 mg/kg gavage, tumor taken 0.25-24 h
Method: A total of 3 mice in the control group were selected, and tumor tissues were taken and cryopreserved 4 h after the administration of the vehicle. The compound No. 4 of the present disclosure was administered to other groups at 100 mg/kg, and tumor tissues was taken at 0.25 h, 1 h, 4 h, 8 h, 12 h and 24 h for cryopreservation.
A certain mass of tumor tissue was taken and added into a corresponding volume of protein lysate (RIPA lysate (Thermo Fisher, Cat. No. 89900): protease inhibitor (cOmplete, Mini, EDTA-free, EASYpack; Roche, Cat. No. 04693159001): phosphatase inhibitor (PhosStop, EASY pack; Roche, Cat. No. 04906837001)=8:1:1), homogenized and lysed in ice bath for 30 min. The mixture was subjected to high-speed centrifugation at low temperature, and then the supernatant was taken for BCA protein quantification (procedure according to the BCA protein quantification kit (Qiagen, Cat. No. PA115-01)). Finally, after the protein concentration was adjusted to be uniform by lysate, loading buffer was added, and the mixture was boiled at 100° C. for 10 min.
4-20% of 10-well prefabricated gel was adopted; the sample loading amount was 100 μg; 140 V electrophoresis was performed for 1-1.5 h; the 300 mA wet-transfer was performed for 1.5-2 h; the membrane was blocked with 5% BSA for 2-3 h; incubating with primary antibody overnight at 4° C. […]

IC50 (TRKA(G667C)): 0.183 nM | GI50 (Ba/F3 LMNA-NTRK1): 0.729 nM | GI50 (Ba/F3 ETV6-NTRK3-G623R): 0.674 nM | GI50 (Ba/F3 ETV6-NTRK2): 1.77 nM | GI50 (Ba/F3 LMNA-NTRK1-G667C): 2.21 nM | GI50 (Ba/F3 LMNA-NTRK1-G595R): 0.166 nM | IC50 (TRKC): 0.443 nM | IC50 (ROS1): 0.19 nM | IC50 (TRKC(G623R)): 0.205 nM
Structure (SMILES): O=C(Nc1ccc(N2CCN(C(=O)CO)CC2)cc1)c1cnn2ccc(N3C[C@@H](F)C[C@@H]3c3cc(F)ccc3F)nc12 [Compound 4, 5-((2R,4S)-2-(2,5-difluorophenyl)-4-fluoropyrrolidin-1-yl)-N-(4-(4-(2-hydroxyacetyl)piperazin-1-yl)phenyl)pyrazolo[1,5-a]pyrimidine-3-carboxamide]
phosphorylation of p-PLCγ1/PLCγ1 and p-AKT/AKT in tumor tissues [1]: effectively inhibit | protein level of TRK and p-TRK in tumor tissues [1]: significantly reduce
